From patent US6949354B2, “Methods for screening compounds active on neurons” (Trophos, priority 1999, dated 2005)

Key:
motor neurons = experiment: Induction of motor neuron cell death by glutamate toxicity (domoic acid); format: cell-based, rat; details: domoic acid at 10^-5 M, after 24 hours
Procedure: Domoic acid at 10^−5M leads to loss of more than 50% of motor neurons after 24 hours (see is example), with even more dramatic effects after longer incubations.
(§1) Rat motor neurons were isolated and purified as described in example 1 and cultured for 3 days in Neurobasal medium without neurotrophic factors (i.e. trophic factor withdrawal) in 4-well plates in the presence or absence of the test molecule. The neurotrophic factor BDNF is used as a positive control for all experiments. […] Motor neurons were grown for 3 days in vitro, then domoic acid at various concentrations was added and the number of surviving motor neurons was counted after 26 hours.

Rat motor neurons = experiment: Motor neuron survival on trophic factor withdrawal; format: cell-based; details: cultured 3 days in Neurobasal medium without neurotrophic factors, 4-well plates; FIG. 1
Procedure: Spinal cords are dissected from day E14.5 sprague Dawley rat embryos (Camu et al., (1993) In: “Immunoselection Strategies for Neural Cell Culture”, Neuroprotocols: A companion to Methods in Neurosciences 2, 191-199). The dorsal part of the spinal cord is cut away, and the meninges removed. Each cord is cut into pieces using a scalpel and placed into 1 ml modified F10 medium (Ca2+, Mg2+-free, no glutamine or phenol red), with 0.025% trypsin, at 37° C. for 10 minutes. The fragments are transferred to 1 ml L15 containing 0.4% BSA and 0.1 mg/ml Dnase, and triturated using a blue (1 ml) tip. Cells are then spun through a BSA (4% w/v) cushion for 5 minutes at 480 g. The small cells are removed using a metrizamide (Serva) density gradient: 6.5% (w/v) metrizamide is placed under the cell suspension and centrifuged for 15 minutes at 860 g. The large motor neurons stay at the interface between the medium and the metrizamide, while the small cells (including non-neuronal cells) are pelleted. […]
as §1, with “molecule.” for “molecule. The neurotrophic factor BDNF is used as a positive control for all experiments.”, “hours. […]” for “hours.”

isolated neurons = experiment: Low-density isolated neuron cultures (384-well plate) under growth factor privation, individual cell count; format: cell-based; details: growth factor privation to induce apoptosis, exclusion threshold below 300 μm^2, untreated well 18 neurons, FIG. 3A
Description: FIG. 3 represents two 9 mm^2-wells of a microtitration plate (384 wells) containing low-density cultures of isolated neurons according to this invention. The cultures were subjected to growth factor privation to induce apoptosis, and treated or not with BDNF. […] The exclusion threshold is below 300 μm^2.

Row | Molecule | survival of motor neurons on trophic factor withdrawal (Rat motor neurons) | also measured
1 | C/C(=C/C=C/[C@@H](C)C(=O)O)[C@H]1CN[C@H](C(=O)O)[C@H]1CC(=O)O [Domoic acid] |  | loss of motor neurons (motor neurons): more than 50%
2 | CCCC(CCC)C(=O)[O-].[Na+] [sodium valproate] | enhances survival of motor neurons | 
3 | (4-carboxyphenyloxyamino) butanoic acid | no effect on motor neuron survival | 
4 | BDNF: neurotrophic factor used as a positive control (protein, UniProt P23560 19-247, looked up) Neurotrophic factor BDNF …: APMKEANIRGQGGLAYPGVRTHGTLESVNGPKAGSRGLTSLADTFEHVIEELLDEDQKVRPNEENNKDADLYTSRVMLSSQVPLEPPLLFLLEEYKNYLDAANMSMRVRRHSDPARRGELSVCDSISEWVTAADKKTAVDMSGGTVTVLEKVPVSKGQLKQYFYETKCNPMGYTKEGCRGIDKRHWNSQCRTTQSYVRALTMDSKKRIGWRFIRIDTSCVCTLTIKRGR |  | neurons present per 9 mm^2 well (isolated neurons): 73 neurons
